# Test results as given in US8557738B2, “Nitrogen-containing heterocyclic derivative and fungicide for agricultural and horticultural use” (Nippon Soda Co., Ltd., priority 2008, dated 2013).
# Where two headings read alike, the source gives them in different places.
# Key:
# [1] = test system: cucumber gray mold pathogen (Botrytis cinerea); test: Cucumber gray mold control test; type: in vivo; conditions: 96 h, read-out: control value
# [2] = test system: apple scab pathogen (Venturia inaequalis); test: Apple scab control test; type: in vivo; conditions: 336 h, read-out: control value
# [3] = emulsion sprayed at 100 ppm active ingredient onto cucumber seedlings (Sagami Hanjiro), lesions on leaves after 4 days vs untreated
# [4] = emulsion sprayed at 100 ppm active ingredient onto apple seedlings (Ralls Janet), lesions on leaves after 2 weeks vs untreated
melting point [°C],SMILES,"pest or weed control at 100 ppm [1, 3] [%]","pest or weed control at 100 ppm [2, 4] [%]",pest or weed control at 100 ppm [2] [%],pest or weed control at 100 ppm [1] [%]
169 to 170,"O=C1COc2ccccc2C(c2cnc3ccccc3c2)=N1 [B1-84, 5-Quinolin-3-yl-benzo[f][1,4]oxazepin-3-one]",≥ 75,–,–,–
–,"CC1(C2CC2)CN=C(c2cnc3ccccc3c2)c2ccccc2O1 (stereo not drawn) [B1-70, 2-Cyclopropyl-2-methyl-5-quinolin-3-yl-2,3-dihydro-benzo[f][1,4]oxazepine]",≥ 75,≥ 75,–,–
151 to 153,"Cc1cccc2c1OC(C)(C)CN=C2c1cnc2c(F)cccc2c1 [B1-79, 5-(8-Fluoro-quinolin-3-yl)-2,2,9-trimethyl-2,3-dihydro-benzo[f][1,4]oxazepine]",≥ 75,≥ 75,–,–
–,"CC1(C)C[N+]([O-])=C(c2cnc3c(F)cccc3c2)c2ccccc2O1 [B5-34, 5-(8-Fluoro-quinolin-3-yl)-2,2-dimethyl-2,3-dihydro-benzo[f][1,4]oxazepine 4-oxide]",≥ 75,≥ 75,–,–
–,"CC1(C)CN2OC2(c2cnc3c(F)cccc3c2)c2ccccc2O1 (stereo not drawn) [B6-34, 8b-(8-Fluoro-quinolin-3-yl)-3,3-dimethyl-2,3-dihydro-8bH-1,4-dioxa-1a-aza-benzo[a]cyclopropa[c]cycloheptene]",–,–,≥ 75,≥ 75
138 to 141,"CC1(C)CN(Cc2ccccc2)C(c2cnc3c(F)cccc3c2)c2cccc(Cl)c2O1 (stereo not drawn) [B4-50, 4-Benzyl-9-chloro-5-(8-fluoro-quinolin-3-yl)-2,2-dimethyl-2,3,4,5-tetrahydro-benzo[f][1,4]oxazepine]",≥ 75,–,–,–
–,"CC1(C)CN=C(c2cnc3ccccc3c2)c2ccccc2O1 [B1-9, 2,2-Dimethyl-5-(3-quinolinyl)-2,3-dihydro-benzo[f][1,4]oxazepine]",≥ 75,≥ 75,–,–
–,"CC1(C)CN=C(c2cnc3ccccc3c2)c2cccc(Oc3ccccc3)c2O1 [B1-82, 2,2-Dimethyl-9-phenoxy-5-quinolin-3-yl-2,3-dihydro-benzo[f][1,4]oxazepine]",≥ 75,≥ 75,–,–
109 to 112,"CC1(C)COc2ccccc2C(c2cnc3ccccc3c2)=N1 [B1-3, 3,3-Dimethyl-5-(3-quinolinyl)-2,3-dihydro-benzo[f][1,4]oxazepine]",≥ 75,≥ 75,–,–
–,"CC1(C)CN=C(c2cnc3ccccc3c2)c2ccccc2S1 [B2-6, 2,2-Dimethyl-5-(3-quinolinyl)-2,3-dihydro-benzo[f][1,4]thiazepine]",≥ 75,≥ 75,–,–
102 to 104,"c1ccc2c(c1)OC1(CC1)CN=C2c1cnc2ccccc2c1 [B1-72, 5-Quinolin-3-yl-2,3-dihydro-benzo[f][1,4]oxazepine-2-spiro-cyclopropane]",≥ 75,–,–,–
